ChEMBL document CHEMBL4507319 (2021)

What was measured:
[1] = target: Histamine H3 receptor (Homo sapiens) (UniProt Q9Y5N1); settings: Compound concentration 10.0 uM
[2] = target: 5'-AMP-activated protein kinase catalytic subunit alpha-2 (Homo sapiens, UniProt P54646)
[3] = target: Serine/threonine-protein kinase pim-3 (Homo sapiens) (UniProt Q86V86); test: Pim-3(h) Eurofins kinase panel; settings: Compound concentration 1.0 uM
AMO1 = test: AMO-1 cell line Proliferation assay; assay type: functional, Homo sapiens; settings: time 3 day
LP-1 = test: LP-1 cell line Proliferation assay; assay type: functional, Homo sapiens; settings: time 3 day
[4] = target: G protein-coupled receptor kinase 5 (Homo sapiens) (UniProt P34947); test: GRK5(h) Eurofins kinase panel; settings: Compound concentration 1.0 uM
Chain of G protein-coupled receptor kinase 5 (Homo sapiens) (P34947 whole entry, looked up): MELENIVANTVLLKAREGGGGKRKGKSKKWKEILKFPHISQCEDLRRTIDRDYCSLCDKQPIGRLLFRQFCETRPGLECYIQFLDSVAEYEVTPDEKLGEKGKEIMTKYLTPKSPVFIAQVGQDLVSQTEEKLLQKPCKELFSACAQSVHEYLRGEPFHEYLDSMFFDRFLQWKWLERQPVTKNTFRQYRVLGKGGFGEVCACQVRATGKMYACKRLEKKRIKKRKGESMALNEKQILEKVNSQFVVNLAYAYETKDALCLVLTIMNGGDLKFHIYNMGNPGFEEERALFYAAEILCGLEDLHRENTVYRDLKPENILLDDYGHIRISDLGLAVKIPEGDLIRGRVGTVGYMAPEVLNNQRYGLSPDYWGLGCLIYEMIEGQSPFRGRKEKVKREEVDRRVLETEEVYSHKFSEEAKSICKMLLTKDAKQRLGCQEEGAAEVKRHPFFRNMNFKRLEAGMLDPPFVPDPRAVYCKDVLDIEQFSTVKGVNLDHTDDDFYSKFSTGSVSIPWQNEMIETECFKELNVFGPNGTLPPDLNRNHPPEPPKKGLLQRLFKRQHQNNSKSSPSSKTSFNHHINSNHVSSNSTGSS

[5] = target: T1, Calcium/calmodulin-dependent protein kinase type IV (Homo sapiens) (UniProt Q16566); test: CaMKIV(h) Eurofins kinase panel; settings: Compound concentration 1.0 uM
T1 sequence (whole entry): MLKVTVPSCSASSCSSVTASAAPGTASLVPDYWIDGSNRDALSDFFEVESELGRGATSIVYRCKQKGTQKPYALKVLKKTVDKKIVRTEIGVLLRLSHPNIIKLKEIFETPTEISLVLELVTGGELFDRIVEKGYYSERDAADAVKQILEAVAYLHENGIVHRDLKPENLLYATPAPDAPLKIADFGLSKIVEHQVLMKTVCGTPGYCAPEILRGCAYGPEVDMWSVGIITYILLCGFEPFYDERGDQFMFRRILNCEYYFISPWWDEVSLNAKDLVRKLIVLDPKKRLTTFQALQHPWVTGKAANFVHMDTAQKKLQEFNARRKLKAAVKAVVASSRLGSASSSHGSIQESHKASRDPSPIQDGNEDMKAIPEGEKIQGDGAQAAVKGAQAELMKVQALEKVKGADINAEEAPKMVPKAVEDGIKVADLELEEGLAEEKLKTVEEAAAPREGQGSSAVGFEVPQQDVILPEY

[6] = target: Dual specificity mitogen-activated protein kinase kinase 2 (Homo sapiens) (UniProt P36507); test: MEK2(h) Eurofins kinase panel; settings: Compound concentration 1.0 uM
Chain of Dual specificity mitogen-activated protein kinase kinase 2 (Homo sapiens) (P36507 whole entry): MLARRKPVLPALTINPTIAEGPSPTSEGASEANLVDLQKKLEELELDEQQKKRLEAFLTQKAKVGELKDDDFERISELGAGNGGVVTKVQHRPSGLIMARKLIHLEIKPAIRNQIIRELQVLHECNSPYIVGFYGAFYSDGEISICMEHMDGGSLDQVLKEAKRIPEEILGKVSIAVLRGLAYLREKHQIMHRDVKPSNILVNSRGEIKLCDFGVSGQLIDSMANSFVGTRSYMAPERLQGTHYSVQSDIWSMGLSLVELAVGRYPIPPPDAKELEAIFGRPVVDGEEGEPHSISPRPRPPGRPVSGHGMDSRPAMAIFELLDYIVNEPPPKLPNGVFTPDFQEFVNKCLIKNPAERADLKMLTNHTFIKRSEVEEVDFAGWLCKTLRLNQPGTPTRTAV

[7] = target: Mitogen-activated protein kinase 3 (Homo sapiens) (UniProt P27361); test: MAPK1(h) Eurofins kinase panel; settings: Compound concentration 1.0 uM
Chain of Mitogen-activated protein kinase 3 (Homo sapiens) (P27361 whole entry, looked up): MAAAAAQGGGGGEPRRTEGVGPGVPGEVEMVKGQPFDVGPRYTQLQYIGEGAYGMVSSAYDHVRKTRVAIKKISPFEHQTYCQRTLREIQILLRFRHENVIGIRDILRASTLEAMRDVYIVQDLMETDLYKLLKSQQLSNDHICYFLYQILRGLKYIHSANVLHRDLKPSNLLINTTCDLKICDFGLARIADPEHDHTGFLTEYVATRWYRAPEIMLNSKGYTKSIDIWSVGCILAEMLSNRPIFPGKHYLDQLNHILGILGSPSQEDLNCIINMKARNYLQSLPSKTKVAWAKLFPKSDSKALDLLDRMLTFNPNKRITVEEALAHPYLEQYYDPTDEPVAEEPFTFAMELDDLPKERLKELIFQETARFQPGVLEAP

[8] = target: Serine/threonine-protein kinase 26 (Homo sapiens) (UniProt Q9P289); test: MST4(h) Eurofins kinase panel; settings: Compound concentration 1.0 uM
Chain of Serine/threonine-protein kinase 26 (Homo sapiens) (Q9P289 2-416 limits assumed): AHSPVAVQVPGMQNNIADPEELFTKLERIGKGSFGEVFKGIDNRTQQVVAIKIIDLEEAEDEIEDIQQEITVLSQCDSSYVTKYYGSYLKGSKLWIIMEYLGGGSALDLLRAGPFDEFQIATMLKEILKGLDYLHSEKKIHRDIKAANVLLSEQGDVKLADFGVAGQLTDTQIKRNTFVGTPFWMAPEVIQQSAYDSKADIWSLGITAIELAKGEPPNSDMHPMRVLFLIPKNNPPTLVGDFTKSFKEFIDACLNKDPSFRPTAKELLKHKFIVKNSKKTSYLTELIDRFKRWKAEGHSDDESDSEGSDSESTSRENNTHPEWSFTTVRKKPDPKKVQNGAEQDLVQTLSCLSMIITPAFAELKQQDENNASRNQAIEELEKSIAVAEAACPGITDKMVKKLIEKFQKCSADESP

[9] = target: T2, Ephrin type-A receptor 1 (Homo sapiens) (UniProt P21709); test: EphA1(h) Eurofins kinase panel; settings: Compound concentration 1.0 uM
T2 sequence (whole entry): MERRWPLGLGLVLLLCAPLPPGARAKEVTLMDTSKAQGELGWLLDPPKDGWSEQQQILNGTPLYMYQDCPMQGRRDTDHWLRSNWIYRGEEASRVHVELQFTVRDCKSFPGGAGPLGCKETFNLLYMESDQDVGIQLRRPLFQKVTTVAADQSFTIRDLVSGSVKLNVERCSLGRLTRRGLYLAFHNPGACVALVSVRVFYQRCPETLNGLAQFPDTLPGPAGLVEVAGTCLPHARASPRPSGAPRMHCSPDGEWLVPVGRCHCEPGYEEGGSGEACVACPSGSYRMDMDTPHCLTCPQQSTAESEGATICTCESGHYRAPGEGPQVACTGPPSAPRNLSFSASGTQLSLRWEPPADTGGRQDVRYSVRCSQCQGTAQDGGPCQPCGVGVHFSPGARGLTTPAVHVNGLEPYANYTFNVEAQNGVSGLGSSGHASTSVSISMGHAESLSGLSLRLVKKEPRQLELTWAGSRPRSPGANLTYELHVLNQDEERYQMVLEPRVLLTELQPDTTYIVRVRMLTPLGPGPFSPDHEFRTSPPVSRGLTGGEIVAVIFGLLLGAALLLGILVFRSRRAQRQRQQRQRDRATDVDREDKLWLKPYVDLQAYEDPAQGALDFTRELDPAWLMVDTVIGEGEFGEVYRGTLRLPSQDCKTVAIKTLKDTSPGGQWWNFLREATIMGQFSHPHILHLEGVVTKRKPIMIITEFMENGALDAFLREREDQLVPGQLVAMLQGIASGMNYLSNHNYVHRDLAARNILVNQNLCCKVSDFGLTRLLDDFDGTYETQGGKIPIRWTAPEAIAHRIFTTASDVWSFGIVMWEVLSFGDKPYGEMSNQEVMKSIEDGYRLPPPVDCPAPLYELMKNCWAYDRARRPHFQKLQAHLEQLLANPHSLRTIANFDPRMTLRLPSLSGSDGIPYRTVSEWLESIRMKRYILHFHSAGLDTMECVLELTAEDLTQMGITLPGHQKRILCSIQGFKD

[10] = target: Homeodomain-interacting protein kinase 1 (Homo sapiens) (UniProt Q86Z02); test: HIPK1(h) Eurofins kinase panel; settings: Compound concentration 1.0 uM
Chain of Homeodomain-interacting protein kinase 1 (Homo sapiens) (Q86Z02 whole entry, looked up): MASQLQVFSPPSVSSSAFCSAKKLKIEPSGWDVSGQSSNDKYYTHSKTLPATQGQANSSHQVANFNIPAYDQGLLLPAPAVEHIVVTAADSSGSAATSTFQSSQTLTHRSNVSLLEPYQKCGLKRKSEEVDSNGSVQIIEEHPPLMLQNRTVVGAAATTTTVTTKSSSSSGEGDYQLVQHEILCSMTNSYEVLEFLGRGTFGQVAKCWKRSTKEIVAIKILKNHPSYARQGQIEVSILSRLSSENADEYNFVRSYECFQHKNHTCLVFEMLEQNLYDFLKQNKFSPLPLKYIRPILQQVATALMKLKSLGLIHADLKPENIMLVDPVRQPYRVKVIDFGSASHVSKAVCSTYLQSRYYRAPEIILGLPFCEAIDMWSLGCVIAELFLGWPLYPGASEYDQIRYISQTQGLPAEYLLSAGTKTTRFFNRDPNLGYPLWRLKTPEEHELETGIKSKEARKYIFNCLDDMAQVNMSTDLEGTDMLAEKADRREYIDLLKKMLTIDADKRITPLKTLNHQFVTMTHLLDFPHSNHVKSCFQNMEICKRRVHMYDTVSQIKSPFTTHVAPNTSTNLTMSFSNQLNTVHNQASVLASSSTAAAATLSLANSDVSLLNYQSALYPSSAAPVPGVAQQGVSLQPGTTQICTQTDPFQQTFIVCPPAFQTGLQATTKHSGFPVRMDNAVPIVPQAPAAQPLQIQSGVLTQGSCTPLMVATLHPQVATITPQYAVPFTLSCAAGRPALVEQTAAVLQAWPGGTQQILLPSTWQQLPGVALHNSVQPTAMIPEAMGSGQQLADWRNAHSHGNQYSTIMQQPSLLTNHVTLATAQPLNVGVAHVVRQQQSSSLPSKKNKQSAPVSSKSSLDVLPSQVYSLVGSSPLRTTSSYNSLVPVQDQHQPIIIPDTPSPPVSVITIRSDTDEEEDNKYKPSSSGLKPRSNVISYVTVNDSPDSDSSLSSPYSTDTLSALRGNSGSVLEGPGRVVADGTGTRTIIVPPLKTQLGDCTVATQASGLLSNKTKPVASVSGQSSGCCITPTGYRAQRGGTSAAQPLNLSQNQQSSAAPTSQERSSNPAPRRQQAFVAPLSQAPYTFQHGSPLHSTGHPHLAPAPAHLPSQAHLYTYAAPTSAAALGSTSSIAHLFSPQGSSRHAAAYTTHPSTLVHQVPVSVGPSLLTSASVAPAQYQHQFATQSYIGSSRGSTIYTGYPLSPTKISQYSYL

Chain of 5'-AMP-activated protein kinase catalytic subunit alpha-2 (P54646 whole entry): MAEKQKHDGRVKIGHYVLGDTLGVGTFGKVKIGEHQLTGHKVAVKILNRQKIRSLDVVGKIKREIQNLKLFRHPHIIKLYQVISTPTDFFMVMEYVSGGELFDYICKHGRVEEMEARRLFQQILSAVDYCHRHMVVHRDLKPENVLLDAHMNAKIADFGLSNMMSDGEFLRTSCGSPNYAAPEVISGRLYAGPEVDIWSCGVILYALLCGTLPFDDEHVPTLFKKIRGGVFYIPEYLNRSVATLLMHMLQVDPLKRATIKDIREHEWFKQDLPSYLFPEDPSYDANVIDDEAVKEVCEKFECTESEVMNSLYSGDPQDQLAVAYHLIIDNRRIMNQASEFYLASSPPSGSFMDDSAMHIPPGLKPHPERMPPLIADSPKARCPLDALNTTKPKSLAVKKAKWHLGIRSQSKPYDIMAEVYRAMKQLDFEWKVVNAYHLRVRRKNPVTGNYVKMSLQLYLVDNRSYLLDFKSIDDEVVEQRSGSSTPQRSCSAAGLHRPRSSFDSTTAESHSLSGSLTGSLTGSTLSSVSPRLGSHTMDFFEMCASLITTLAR
Chain of Histamine H3 receptor (Homo sapiens) (Q9Y5N1 whole entry): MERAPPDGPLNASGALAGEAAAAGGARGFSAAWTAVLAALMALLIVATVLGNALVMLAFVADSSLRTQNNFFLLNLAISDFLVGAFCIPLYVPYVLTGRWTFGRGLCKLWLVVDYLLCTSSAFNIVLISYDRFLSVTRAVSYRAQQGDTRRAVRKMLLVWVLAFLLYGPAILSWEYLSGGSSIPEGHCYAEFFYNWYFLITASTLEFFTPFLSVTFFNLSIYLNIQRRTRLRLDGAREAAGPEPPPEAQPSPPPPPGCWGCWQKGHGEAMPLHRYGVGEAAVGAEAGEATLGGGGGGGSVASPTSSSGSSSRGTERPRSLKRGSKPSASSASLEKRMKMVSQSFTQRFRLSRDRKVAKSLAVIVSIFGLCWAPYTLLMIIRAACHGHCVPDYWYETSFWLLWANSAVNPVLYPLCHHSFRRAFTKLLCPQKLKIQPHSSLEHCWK

| SMILES | inhibition [1] [%] | IC50 [2] [nM] | % residual kinase activity [3] [%] | Cell Proliferation IC50 (AMO1) [nM] | Cell Proliferation IC50 (LP-1) [nM] | % residual kinase activity [4] [%] | % residual kinase activity [5] [%] | % residual kinase activity [6] [%] | % residual kinase activity [7] [%] | % residual kinase activity [8] [%] | % residual kinase activity [9] [%] | % residual kinase activity [10] [%] |
| --- | --- | --- | --- | --- | --- | --- | --- | --- | --- | --- | --- | --- |
| CC1=C(C#N)C(c2ccc3c(c2)c(NC(=O)c2ccccc2C)nn3C)C(C#N)=C(C)N1 [BAY-974] | 1.89 | – | – | – | – | – | – | – | – | – | – | – |
| CCc1ccccc1C(=O)Nc1n[nH]c2c(C)c(F)c(C3C(C#N)=C(C)N(C)C(C)=C3C#N)cc12 [BAY-3827] | – | 7 | 108 | >33000 | 1900 | 98 | 111 | 112 | 95 | 84 | 98 | 100 |
